Consider 45 compounds from ChEMBL document CHEMBL3870328, “Synthesis of novel Ral inhibitors: An in vitro and in vivo study” (Bioorg Med Chem Lett, 2016).

A short description of series [1]: (§1) Cytotoxicity against human NCI-H2122 cells under anchorage-independent condition assessed as cell growth inhibition after 10 days by nitro blue tetrazolium-based microscopic analysis. It counts as functional. As to conditions: NCI-H2122, 240 h.
Series [2] is described as follows: Half life in ip dosed mouse plasma. In kind it is ADME, organism-based.
Series [3] deals with T1, Ras-related protein Ral-B (Homo sapiens) (UniProt P11234).
T1 sequence (whole entry): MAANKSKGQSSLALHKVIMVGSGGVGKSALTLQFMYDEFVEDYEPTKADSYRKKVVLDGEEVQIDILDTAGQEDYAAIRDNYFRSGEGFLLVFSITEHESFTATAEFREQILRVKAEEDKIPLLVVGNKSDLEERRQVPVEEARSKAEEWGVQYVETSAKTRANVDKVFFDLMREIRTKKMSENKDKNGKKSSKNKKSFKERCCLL
The experiment in a line: Inhibition of RalB activity in human H2122 spheroids after 4 hrs by RalBP1 pull down assay.

Series [4] is described as follows: Plasma concentration in mouse xenografted with human NCI-H2122 cells at 50 mg/kg, ip after 3 hrs by LC-MS/MS analysis. In kind it is ADME, organism-based. Background: A xenograft is tissue or cells of one species grown in another, often human tumour cells in immunodeficient mice.
A short description of series [5]: Drug uptake in brain of mouse xenografted with human NCI-H2122 cells at 50 mg/kg, ip after 3 hrs by LC-MS/MS analysis. It counts as ADME, organism-based. As to conditions: read-out: Drug uptake.
Series [6] is described as follows: Drug uptake in kidney of mouse xenografted with human NCI-H2122 cells at 50 mg/kg, ip after 3 hrs by LC-MS/MS analysis. As to conditions: read-out: Drug uptake. It counts as ADME, organism-based.
Series [7] can be described thus: Drug uptake in tumor of mouse xenografted with human NCI-H2122 cells at 50 mg/kg, ip after 3 hrs by LC-MS/MS analysis. As to conditions: read-out: Drug uptake. In kind it is ADME, organism-based, Neoplasm.
Series [8] is described as follows: Drug uptake in liver of mouse xenografted with human NCI-H2122 cells at 50 mg/kg, ip after 3 hrs by LC-MS/MS analysis. It counts as ADME, organism-based. As to conditions: read-out: Drug uptake.
The target in series [9] is T2, Ras-related protein Ral-A (Homo sapiens) (UniProt P11233).
T2 sequence (whole entry): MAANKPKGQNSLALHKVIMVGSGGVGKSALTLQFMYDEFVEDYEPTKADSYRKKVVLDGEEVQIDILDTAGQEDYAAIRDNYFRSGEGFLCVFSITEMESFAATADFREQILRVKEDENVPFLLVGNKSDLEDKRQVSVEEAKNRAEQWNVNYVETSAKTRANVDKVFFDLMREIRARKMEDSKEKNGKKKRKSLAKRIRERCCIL
The experiment in a line: Inhibition of RalA activity in human H2122 spheroids after 4 hrs by RalBP1 pull down assay.

Series [10] in a line: Drug uptake in lungs of mouse xenografted with human NCI-H2122 cells at 50 mg/kg, ip after 3 hrs by LC-MS/MS analysis. In kind it is ADME, organism-based. To be noted: lung, read-out: Drug uptake.
Series [11] in a line: Drug uptake in heart of mouse xenografted with human NCI-H2122 cells at 50 mg/kg, ip after 3 hrs by LC-MS/MS analysis. As to conditions: read-out: Drug uptake. It counts as ADME, organism-based.
Series [12] relates to NCI-H2122. The series is described as §1. It counts as functional.
A short description of series [13]: Drug level in CD1 mouse liver microsomes treated with 6-amino-4-(2,5-dimethoxyphenyl)-3-(naphthalen-2-yl)-1,4-dihydropyrano[2,3-c]pyrazole-5-carbonitrile at 16.7 uM assessed as CYP450-mediated compound formation in presence of NADPH by LC-MS/MS analysis. It counts as ADME.

Activity calls are given as the source filed them. No cut-off for these calls is given here.

Take `N#CC1=C(N)Oc2c(c(-c3ccccc3)nn2-c2ccccc2)C1c1ccc(F)cc1` (stereo not given): the IC50 in [1] worked out at 4.1 µM.
Turning to `Cc1nn(C)c2c1C(c1ccc3c(c1)OCCO3)C(C#N)=C(N)O2` (stereo not given), in series [1], the IC50 amounted to 8.6 µM.
On to `COc1ccc(C2C(C#N)=C(N)Oc3c2c(-c2ccccc2)nn3C)cc1` (stereo not given), for which the IC50 in series [1] is over 10 µM.
Turning to `COc1ccc(C2C(C#N)=C(N)Oc3c2c(-c2ccccc2)nn3C)cc1F` (stereo not given), the IC50 in [1] was over 10 µM.
The same measure, in the same setting: the figure for `Cn1nc(-c2ccccc2)c2c1OC(N)=C(C#N)C2c1ccncc1` (stereo not given) is 5.2 µM.
With `Cc1nn(C)c2c1C(c1ccc(C(C)C)cc1)C(C#N)=C(N)O2` (stereo not given), the IC50 in series [1] was 4 µM.
In the case of `COc1ccc(C2C(C#N)=C(N)Oc3c2c(C)nn3C)cc1` (stereo not given), the IC50 in series [1] came out at 8.6 µM.
Take `COc1ccc(C2C(C#N)=C(N)Oc3c2c(C)nn3-c2ccccc2)cc1` (stereo not given): the IC50 in [1] was determined as 4.1 µM.
As to `Cc1nn(C)c2c1C(c1cc(F)cc(F)c1)C(C#N)=C(N)O2` (stereo not given), the IC50 in [1] was 4.2 µM.
On to `Cc1nn(C)c2c1C(c1ccc(C(F)(F)F)cc1)C(C#N)=C(N)O2` (stereo not given), for which, in series [2], the half-life was under 1.5 h. Besides, the inhibition result in series [3] and in series [9] was “Dose-dependent effect” in each case. For the same compound, the concentration at 3 h amounted to 5640 ng/mL in [4]; 1390 ng/g in series [5]; 2400 ng/g in series [6]; 1220 ng/g in series [7]; 4070 ng/g in series [8]; 1870 ng/g in [10]. The concentration at 3 h in series [11] turned out to be 2080 ng/g. Besides, the IC50 in [1] is 2.2 µM.
Take `COc1ccc(-c2nn(C)c3c2C(c2ccccc2)C(C#N)=C(N)O3)cc1` (stereo not given): the IC50 in [1] is over 10 µM.
Still for that read-out and setting: with `Cn1nc(-c2ccccc2)c2c1OC(N)=C(C#N)C2c1cc(F)cc(F)c1` (stereo not given) the figure was 6.6 µM.
Consider `Cc1nn(C)c2c1C(c1cccc(Br)n1)C(C#N)=C(N)O2` (stereo not given), for which the IC50 in series [1] is 2.4 µM.
Turning to `Cn1nc(-c2ccccc2)c2c1OC(N)=C(C#N)C2c1ccc(OC(F)(F)F)cc1` (stereo not given), the IC50 in [1] was 5.5 µM.
Regarding `Cc1nn(C)c2c1C(c1ccc(F)cc1)C(C#N)=C(N)O2` (stereo not given), the IC50 in series [1] was over 10 µM.
As to `Cn1nc(-c2ccccc2)c2c1OC(N)=C(C#N)C2c1ccccc1` (stereo not given), the IC50 in series [1] is over 10 µM.
Turning to `Cc1nn(C)c2c1C(c1ccccc1)C(C#N)=C(N)O2` (stereo not given), in series [1], the IC50 stood at 9.1 µM.
In the case of `COc1ccc(C2C(C#N)=C(N)Oc3c2c(C)nn3C)cc1F` (stereo not given), in [1], the IC50 was determined as 5.8 µM.
For `COc1ccc(-c2nn(C)c3c2C(c2ccc(F)cc2)C(C#N)=C(N)O3)cc1OC` (stereo not given), in [1], the IC50 was over 10 µM.
Same read-out and setting: the figure for `Cc1nn(C)c2c1C(c1ccc(OC(F)(F)F)cc1)C(C#N)=C(N)O2` (stereo not given) is 2.9 µM; for `COc1ccc(-c2nn(C)c3c2C(c2ccc(F)cc2)C(C#N)=C(N)O3)cc1` (stereo not given) it is over 10 µM; for `COc1ccc(-c2nn(-c3ccccc3)c3c2C(c2ccc(F)cc2)C(C#N)=C(N)O3)cc1` (stereo not given) it is 6 µM.
The same measure, in the same setting: the figure for `CC(C)c1ccc(C2C(C#N)=C(N)Oc3c2c(-c2ccccc2)nn3C)cc1` (stereo not given) is 5.4 µM; for `Cn1nc(-c2ccccc2)c2c1OC(N)=C(C#N)C2c1cccc(Br)n1` (stereo not given) it is 1.7 µM.
For the compound `Cc1nn(-c2ccccc2)c2c1C(c1ccc(F)cc1)C(C#N)=C(N)O2` (stereo not given), the IC50 in [1] came out at 6.6 µM.
Same read-out and setting: the figure for `Cc1nn(C)c2c1C(c1ccncc1)C(C#N)=C(N)O2` (stereo not given) is 4.1 µM; for `COc1ccc(-c2nn(C)c3c2C(c2ccccc2)C(C#N)=C(N)O3)cc1OC` (stereo not given) it is over 10 µM; for `Cc1nn(C)c2c1C(c1cccnc1)C(C#N)=C(N)O2` (stereo not given) it is 8.8 µM.
Consider `COc1cc(OC)c(C2C(C#N)=C(N)Oc3c2c(C)nn3C)c(OC)c1` (stereo not given), for which the half-inhibitory concentration (IC50) in series [1] worked out at 1.6 µM.
As for `COc1ccc(-c2nn(-c3ccccc3)c3c2C(c2ccc(OC)cc2)C(C#N)=C(N)O3)cc1` (stereo not given), the IC50 in series [1] worked out at 1.1 µM.
As for `COc1ccc(-c2nn(C)c3c2C(c2ccc(OC)cc2)C(C#N)=C(N)O3)cc1` (stereo not given), in series [1], the IC50 was over 10 µM.
The same measure, in the same setting: with `COc1ccc(-c2nn(-c3ccccc3)c3c2C(c2ccccc2)C(C#N)=C(N)O3)cc1` (stereo not given) the figure was 7.2 µM.
As for `Cn1nc(-c2ccccc2)c2c1OC(N)=C(C#N)C2c1ccc(-n2ccnc2)cc1` (stereo not given), the half-life in series [2] is under 1.5 h. In addition, the inhibition entry in series [3] and in [9] was “Dose-dependent effect” each time. In addition, the concentration at 3 h came out at 490 ng/mL in series [4]; 170 ng/g in series [5]; 630 ng/g in [6]; 380 ng/g in [7]; 980 ng/g in [8]; 1090 ng/g in [10]. For the same compound, the concentration at 3 h in [11] worked out at 930 ng/g. In addition, the “growth inhibition (GI)” value in series [12] was “Active”.
Turning to `Cn1nc(-c2ccccc2)c2c1OC(N)=C(C#N)C2c1ccc(F)cc1` (stereo not given), in series [1], the IC50 is over 10 µM.
In the case of `COc1ccc(C2C(C#N)=C(N)Oc3c2c(-c2ccccc2)nn3-c2ccccc2)cc1` (stereo not given), in series [1], the IC50 amounted to 3.1 µM.
Same read-out and setting: with `Cc1nn(C)c2c1C(c1ccc(C#N)cc1)C(C#N)=C(N)O2` (stereo not given) the figure was 5.6 µM; with `Cc1nn(C)c2c1C(c1ccc(-n3ccnc3)cc1)C(C#N)=C(N)O2` (stereo not given), 1.7 µM.
Take `N#CC1=C(N)Oc2[nH]nc(-c3ccc4ccccc4c3)c2C1c1cc(O)ccc1O` (stereo not given): the Drug metabolism result in series [13] was “Metabolite_Detected”.
In the case of `Cc1nn(-c2ccccc2)c2c1C(c1ccccc1)C(C#N)=C(N)O2` (stereo not given), the IC50 in [1] worked out at 2.7 µM.
Still for that read-out and setting: the figure for `Cn1nc(-c2ccccc2)c2c1OC(N)=C(C#N)C2c1ccc2c(c1)OCCO2` (stereo not given) is 8.4 µM; for `COc1ccc(-c2nn(-c3ccccc3)c3c2C(c2ccc(F)cc2)C(C#N)=C(N)O3)cc1OC` (stereo not given) it is 7.6 µM.
Still for that read-out and setting: the figure for `Cn1nc(-c2ccccc2)c2c1OC(N)=C(C#N)C2c1ccc(C(F)(F)F)cc1` (stereo not given) is 4.1 µM; for `Cn1nc(-c2ccccc2)c2c1OC(N)=C(C#N)C2c1ccc(C#N)cc1` (stereo not given) it is 5.2 µM.
On the same count and under the same terms, the figure for `N#CC1=C(N)Oc2c(c(-c3ccccc3)nn2-c2ccccc2)C1c1ccccc1` (stereo not given) is 4.1 µM.
Consider `Cn1nc(-c2ccccc2)c2c1OC(N)=C(C#N)C2c1cccnc1` (stereo not given), for which the IC50 in series [1] was over 10 µM.

The IC50 is the concentration needed to halve the response being measured. In general, half-life refers to how long it takes for the measured level to halve. Read a high half-life as slow decline.
